{"source": "patent US6890906B2", "about": "“Method for controlling angiogenesis in animals” (Glycogenesys, Inc., priority 2001, dated 2005)", "key": {"[1]": {"test_system": "human umbilical vein endothelial cells (HUVEC)", "conditions": "for AVERAGE cell count: average of runs; for Cell count (cells that migrated through the membrane): single runs, 4 hours, 37° C.", "protocol": "In a first portion of the experimental series, the effect of the chemoattractant vascular endothelial growth factor (VEGF) on human umbilical vein endothelial cells (HUVEC) was quantified. The experiment was carried out in a transwell plate, and in preparation therefor, HUVEC cells were grown to approximately 80% confluency. The cells were suspended in basal media and placed in a transwell plate on fibronectin coated membrane inserts at 50,000 cells per insert. Varying concentrations of VEGF were added to the bottom chamber of the transwell plate, and the plates incubated for 4 hours at 37° C. with a 5% CO2 atmosphere. Following incubation, the membranes were fixed and stained. Nonmigrated cells were removed by mechanical abrasion and cells that migrated through the membrane were counted. […] Three runs were made."}, "[2]": {"test_system": "human umbilical vein endothelial cells (HUVEC)", "test": "Inhibition of VEGF-induced HUVEC cell migration by modified pectin in transwell plate", "type": "cell-based", "conditions": "VEGF 30 ng/ml Only (positive control, no GCS-100)", "protocol": "Following incubation, the membranes were fixed and stained. […] Three runs were made.\nThe material comprised a modified pectin which is commercially available from GlycoGenesys, Inc. of Boston, Mass., under the designation GCS-100. In this experimental series, HUVEC cells were incubated in a transwell plate with VEGF, and varying concentrations of the therapeutic material, under conditions as described hereinabove. The concentration of VEGF was 30 ng/ml. In one group of experiments, cells were incubated with VEGF in the absence of the carbohydrate material, and these experiments served as a positive control. In another group of experiments, cells were incubated with growth medium and no VEGF or therapeutic carbohydrate, and this group served as a negative control. In the remaining experiments, concentrations of the GCS-100 ranging from 0.001% to 0.1% were employed."}}, "note": "“And” between values parts separate entries of the source, which are not always exact repeats. Equal values may be shown once. Read-outs that look alike come from different tables or passages of the source.", "data": [{"substance": "vascular endothelial growth factor [VEGF]", "values": [{"measurement": "AVERAGE cell count", "setting": "[1]; 1 ng/ml VEGF", "result": 734}, {"measurement": "Cell count (cells that migrated through the membrane)", "setting": "[1]; 1 ng/ml VEGF", "result": "607 and 766 and 830"}, {"measurement": "AVERAGE cell count", "setting": "[1]; 3 ng/ml VEGF", "result": 1043}, {"measurement": "Cell count (cells that migrated through the membrane)", "setting": "[1]; 3 ng/ml VEGF", "result": "950 and 1136"}, {"measurement": "AVERAGE cell count", "setting": "[1]; 10 ng/ml VEGF", "result": 1218}, {"measurement": "Cell count (cells that migrated through the membrane)", "setting": "[1]; 10 ng/ml VEGF", "result": "1144 and 938 and 1573"}, {"measurement": "AVERAGE cell count", "setting": "[1]; 30 ng/ml VEGF", "result": 1162}, {"measurement": "Cell count (cells that migrated through the membrane)", "setting": "[1]; 30 ng/ml VEGF", "result": "898 and 1448 and 1140"}, {"measurement": "AVERAGE cell count", "setting": "[1]; 100 ng/ml VEGF", "result": 1210}, {"measurement": "Cell count (cells that migrated through the membrane)", "setting": "[1]; 100 ng/ml VEGF", "result": "1650 and 901 and 1078"}, {"measurement": "chemotactic effect", "setting": "[1]; VEGF concentrations of 10-30 ng/ml", "result": "strong chemotactic effect"}, {"measurement": "AVERAGE cell count", "setting": "[2]; average", "result": 1244}, {"measurement": "Cell count (migrated cells)", "setting": "[2]; single runs", "result": "1322 and 1167"}]}]}
